From patent US12054526B2, “Polypeptides, nucleic acid molecules, compositions, and related methods” (CHILDREN'S HOSPITAL MEDICAL CENTER, priority 2018, dated 2024)
“Also recorded” adds a separate entry of the source.

Experiments:
WT C2C12 myoblasts = assay: Synchronized fusion assay (LPC), WT C2C12; assay type: cell-based; conditions: 50 μM CPZ 60 seconds at LPC removal, assayed after 30 minutes
Excerpt: (§1) We uncoupled the myoblast fusion stage of myogenic differentiation from the stages that prepare the cells for fusion using a fusion-synchronization approach described previously (GAMAGE et al. (2017) “Insights into the localization and function of myomaker during myoblast fusion” J Biol Chem, Vol. 292, pp. 17272-17289, which is herein incorporated by reference in its entirety; LEIKINA et al. (2013) “Extracellular annexins and dynamin are important for sequential steps in myoblast fusion” J Cell Biol, Vol. 200, pp. 109-123, which is herein incorporated by reference in its entirety). In brief, fusion-committed myoblasts were placed into complete medium supplemented with 150 μM lauroyl LPC (#855475P, Avanti Polar Lipids). 16 h later we washed the cells three times with LPC-free complete medium. […]
(§2) We labeled C2C12 cells 48 hours after placement in the differentiation medium, and co-plated differently labeled cells in a 1-to-1 ratio. […] Fusion was scored 30 min after LPC removal and thus […] after placing the cells into differentiation medium. […] We kept the cells in LPC-supplemented differentiation medium for 16 hours, washed out LPC with LPC-free medium and 30 minutes later (˜24 hours after placing the cells into differentiation medium) scored fusion. […]

Myomaker^−/− C2C12 cells = assay: Synchronized fusion assay (LPC), Myomaker^−/− C2C12; assay type: cell-based; conditions: 50 μM CPZ 60 seconds at LPC removal, assayed after 30 minutes
Description: We labeled C2C12 cells 48 hours after placement in the differentiation medium, and co-plated differently labeled cells in a 1-to-1 ratio. […] Fusion was scored 30 min after LPC removal and thus −68 hours after placing the cells into differentiation medium. […] We kept the cells in LPC-supplemented differentiation medium for 16 hours, washed out LPC with LPC-free medium and 30 minutes later (˜24 hours after placing the cells into differentiation medium) scored fusion.
Formation of multinucleated myotubes was quantified as the percentage of cell nuclei present in myotubes normalized to the total number of cell nuclei. Hemifusion and fusion pore opening were quantified as a number of double-labeled mononucleated cells normalized to the total number of cell nuclei in the field. […]

[1] = test system: Myomerger^−/− C2C12 myoblasts; assay: Synchronized fusion assay (LPC), Myomerger^−/− C2C12; assay type: cell-based; conditions: 50 μM CPZ 60 seconds at LPC removal, assayed after 30 minutes
Excerpt: as §1, §2

[2] = test system: Myomerger^−/− C2C12 myoblasts; assay: Myoblast fusion assay (myosin+ cells, nuclei count), Myomerger-deficient myoblasts; assay type: cell-based
Excerpt: To specifically characterize different steps in fusion, we used 3 distinct assays: (i) hemifusion between cells labeled with membrane probe and content probe with unlabeled cells where hemifusion was detected as the appearance of lipid-labeled mononucleated cells without the content probe (FIG. 1A, FIG. 2A, FIG. 1E)); (ii) opening of a fusion pore in fusion between cells labeled with green cell tracker and cells labeled with orange cell tracker was detected as appearance of double-labeled cells (FIG. 1F); and (iii) fusion completion was detected as formation of multinucleated cells. […] Formation of multinucleated myotubes was quantified as the percentage of cell nuclei present in myotubes normalized to the total number of cell nuclei. Hemifusion and fusion pore opening were quantified as a number of double-labeled mononucleated cells normalized to the total number of cell nuclei in the field. For each condition, ≥8 randomly chosen fields of view were imaged. We also analyzed fusion by assessing the number of nuclei in myosin^+ cells. Here, cells were fixed with 4% paraformaldehyde (PFA)/PBS, permeabilized with 0.02% Triton X-100/PBS, and blocked with 3% BSA/PBS followed by immunostaining with myosin antibodies (MF 20, Developmental Studies Hybridoma Bank, 1:40) for one hour at room temperature. Alexa-Fluor secondary antibody (Invitrogen, 1:250) was incubated for 30 minutes at room temperature. Nuclei were stained with Hoechst (Invitrogen). Samples were imaged with a Nikon Eclipse inverted microscope with AIR confocal running NIS Elements and images were analyzed with Fiji (SCHINDELIN et al. (2012) “Fiji: an open-source platform for biological-image analysis” Nat Methods, Vol. 9, pp. 676-682, which is herein incorporated by reference in its entirety)
For detergent and recombinant protein application, 2.5×10^4 myoblasts per well of an 8-well μ-slide (Ibidi) were differentiated for 72 hours. 0.06% Octyl-β-Glucoside (OG) (Anatrace) in differentiation media was incubated for 30 minutes at 37° C. Cells were washed with PBS and switched back to normal differentiation media for 5 hours. For primary myoblasts, 3×10^4 cells were plated per well of an 8-well μ-slide (Ibidi) coated with fibronectin (Sigma-Aldrich, 5 μg/cm^2) and differentiated for 36 hours. Cells were treated with 0.06% OG in PBS for 30 minutes at 37° C., washed with PBS and switched back to normal differentiation media for 2 hours. For recombinant proteins, cells were treated with various concentrations of rMBP or rMBP-Myomerger^26-84 (0.5 μM, 1.25 μM, 3 μM, 6.25 μM and 12.5 μM), or 6.25 μM of Magainin 2 (AnaSpec), in differentiation media for 20 hours at 37° C.

[3] = test system: Myomaker^−/− C2C12 myoblasts; assay: Myoblast fusion assay (myosin+ cells, nuclei count), Myomaker-deficient myoblasts; assay type: cell-based
Excerpt: (§3) To specifically characterize different steps in fusion, we used 3 distinct assays: (i) hemifusion between cells labeled with membrane probe and content probe with unlabeled cells where hemifusion was detected as the appearance of lipid-labeled mononucleated cells without the content probe (FIG. 1A, FIG. 2A, FIG. 1E)); (ii) opening of a fusion pore in fusion between cells labeled with green cell tracker and cells labeled with orange cell tracker was detected as appearance of double-labeled cells (FIG. 1F); and (iii) fusion completion was detected as formation of multinucleated cells. […] Formation of multinucleated myotubes was quantified as the percentage of cell nuclei present in myotubes normalized to the total number of cell nuclei. Hemifusion and fusion pore opening were quantified as a number of double-labeled mononucleated cells normalized to the total number of cell nuclei in the field. For each condition, ≥8 randomly chosen fields of view were imaged. We also analyzed fusion by assessing the number of nuclei in myosin^+ cells. […] Samples were imaged with a Nikon Eclipse inverted microscope with AIR confocal running NIS Elements and images were analyzed with Fiji (SCHINDELIN et al. (2012) “Fiji: an open-source platform for biological-image analysis” Nat Methods, Vol. 9, pp. 676-682, which is herein incorporated by reference in its entirety) […]

C2C12 myoblasts = assay: Myoblast fusion assay, WT myoblasts; assay type: cell-based
Excerpt: as §3

primary myoblasts = assay: Myoblast fusion assay, Myomerger-deficient primary myoblasts; assay type: cell-based, mouse; conditions: 0.06% OG in PBS 30 minutes
Excerpt: as §3

[4] = test system: mouse Red Blood Cells (RBCs); assay: Red blood cell hemolysis (spectrophotometer); assay type: cell-based; conditions: Myomerger ectodomain at 25 μM
Description: Myomerger ectodomain (amino acids 26-84) was added to mouse Red Blood Cells (RBCs) and hemolysis was measured using a spectrophotometer (FIG. 9).

[5] = test system: Escherichia coli (E. coli); assay: Bactericidal assay, colony forming units; assay type: cell-based; conditions: 25 μM, 2 hours
Description: (§4) Gram-positive bacteria Listeria monocytogenes (Lm) and gram-negative bacteria Escherichia coli (E. coli) were treated with 25 μM recombinant Myomerger ectodomain (labeled as “protein” in FIG. 8) for 2 hours.

[6] = test system: Listeria monocytogenes (Lm); assay: Bactericidal assay, colony forming units; assay type: cell-based; conditions: 25 μM, 2 hours
Description: as §4

[7] = 0.06% OG 30 minutes on day 3 of differentiation, fusion assessed 5 hours after treatment
[8] = 6.25 μM Magainin 2, 20 hours on day 3 of differentiation

CN(C)CCCN1c2ccccc2Sc2ccc(Cl)cc21 [CPZ, chlorpromazine]
fusion (syncytium formation) (WT C2C12 myoblasts): little effect | fusion (syncytium formation) (Myomaker^−/− C2C12 cells): No fusion was observed | fusion (syncytium formation) [1]: reached fusion levels observed for WT myoblasts

CCCCCCCCO[C@@H]1O[C@H](CO)[C@@H](O)[C@H](O)[C@H]1O [OG, Octyl-β-Glucoside]
fusion [2, 7]: obvious fusion events; also recorded: induced fusion | percentage of myosin+ cells with 3 or ≥4 nuclei ([2]; OG treatment): increased the percentage of cells with 3 nuclei but also induced formation of myotubes with ≥4 nuclei | fusion [3, 7]: did not fuse | fusion (C2C12 myoblasts; OG treatment): did not have an effect | fusion (primary myoblasts): compensate for loss of Myomerger

Magainin 2 [Mag2]
fusion [2, 8]: partially rescued fusion; also recorded: induced myotube formation | percentage of myosin+ cells with 3 or ≥4 nuclei ([2]; Mag2 treatment): increased the percentage of cells with 3 nuclei but also induced formation of myotubes with ≥4 nuclei | fusion [3, 8]: had no effect | fusion (C2C12 myoblasts; Mag2 treatment): did not have an effect | hemolysis [4]: no measurable effect

B1: Myomerger ectodomain: recombinant Myomerger ectodomain (amino acids 26-84) used in Example Set B (protein)
chain: MPVPLLPMVLRSLLSRLLLPVARLARQHLLPLLRRLARRLSSQDMREALLSCLLFVLSQQQPPDSGEASRVDHSQRKERLGPQK
growth (colony forming units) [5]: disrupts the growth | growth (colony forming units) [6]: disrupts the growth | effect on Lm compared to E. coli ([6]; gram-positive vs gram-negative): more of an effect | hemolysis [4]: induced lysis
